From ChEMBL document CHEMBL3044753, “Polyamines May Modulate Both G Protein-Coupled Receptors and G Proteins” (Med Chem Res, 2004)
Active and inactive are the calls of the source. The rule behind the calls is not given here.

What was measured:
[1] = tested on: Right cardiac atrium; test: Negative ionotropic activity in electrically-paced Cavia porcellus (guinea pig) right atrium measured after 60 min by isometric transducer analysis in presence of bupranolol; assay type: functional, tissue-based
[2] = tested on: Left cardiac atrium; test: Negative ionotropic activity in electrically-paced Cavia porcellus (guinea pig) left atrium measured after 60 min by isometric transducer analysis in absence of benextramine/4-DAMP mustard; assay type: functional, tissue-based; settings: 1 h
[3] = tested on: Left cardiac atrium; test: Negative ionotropic activity in electrically-paced Cavia porcellus (guinea pig) left atrium measured after 60 min by isometric transducer analysis in presence of prazosin; assay type: functional, tissue-based
[4] = tested on: Right cardiac atrium; test: Negative […] activity in electrically-paced Cavia porcellus (guinea pig) right atrium assessed as effect on force measured after 60 min by isometric transducer analysis in presence of benextramine/4-DAMP mustard relative to N-dodecyl lysine amide; assay type: functional
[5] = tested on: Left cardiac atrium; test: Negative ionotropic activity in electrically-paced Cavia porcellus (guinea pig) left atrium measured after 60 min by isometric transducer analysis in presence of thioperamide; assay type: functional, tissue-based
[6] = tested on: Right cardiac atrium; test: Negative ionotropic activity in electrically-paced Cavia porcellus (guinea pig) right atrium measured after 60 min by isometric transducer analysis in presence of benextramine; assay type: functional, tissue-based
[7] = tested on: Left cardiac atrium; test: Negative ionotropic activity in electrically-paced Cavia porcellus (guinea pig) left atrium measured after 60 min by isometric transducer analysis in presence of bupranolol; assay type: functional, tissue-based
[8] = tested on: Right cardiac atrium; test: Negative ionotropic activity in electrically-paced Cavia porcellus (guinea pig) right atrium measured after 60 min by isometric transducer analysis in presence of 4-DAMP mustard; assay type: functional, tissue-based
[9] = molecular target: T1, Muscarinic acetylcholine receptor M2 (Homo sapiens) (UniProt P08172); test: Allosteric modulation of Homo sapiens (human) recombinant muscarinic M2 receptor expressed in CHO cells assessed as inhibition of N-[3H]methylscopalamine dissociation incubated at 1 hr post N-[3H]methylscopalamine addition measured after 5 min by filter binding assay; assay type: cell-based
T1 sequence (whole entry): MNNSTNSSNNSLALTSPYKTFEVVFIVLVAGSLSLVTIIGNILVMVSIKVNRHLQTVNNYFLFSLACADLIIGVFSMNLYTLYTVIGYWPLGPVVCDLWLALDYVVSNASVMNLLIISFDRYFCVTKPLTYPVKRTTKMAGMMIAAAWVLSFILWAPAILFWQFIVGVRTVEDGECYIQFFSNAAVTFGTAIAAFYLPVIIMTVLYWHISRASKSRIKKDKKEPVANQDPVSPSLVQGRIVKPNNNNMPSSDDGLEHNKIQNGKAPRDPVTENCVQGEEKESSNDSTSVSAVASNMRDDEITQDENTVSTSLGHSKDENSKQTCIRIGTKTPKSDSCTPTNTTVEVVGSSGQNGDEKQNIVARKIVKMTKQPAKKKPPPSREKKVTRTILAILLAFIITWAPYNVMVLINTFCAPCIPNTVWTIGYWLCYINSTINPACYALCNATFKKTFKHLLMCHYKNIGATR

[10] = tested on: Left cardiac atrium; test: Negative ionotropic activity in electrically-paced Cavia porcellus (guinea pig) left atrium measured after 60 min by isometric transducer analysis in presence of dihydroergocristine; assay type: functional, tissue-based
[11] = tested on: Right cardiac atrium; test: Negative ionotropic activity in electrically-paced Cavia porcellus (guinea pig) right atrium measured after 60 min by isometric transducer analysis in presence of DPCPX; assay type: functional, tissue-based
[12] = tested on: Left cardiac atrium; test: Negative ionotropic activity in electrically-paced Cavia porcellus (guinea pig) left atrium measured after 60 min by isometric transducer analysis in presence of benextramine/4-DAMP mustard; assay type: functional, tissue-based; settings: 1 h
[13] = tested on: Left cardiac atrium; test: Negative ionotropic activity in electrically-paced Cavia porcellus (guinea pig) left atrium measured after 60 min by isometric transducer analysis in absence of benextramine/4-DAMP mustard relative to N-dodecyl lysine amide; assay type: functional
[14] = molecular target: Muscarinic acetylcholine receptor M3 (Homo sapiens) (UniProt P20309); test: Allosteric modulation of Homo sapiens (human) recombinant muscarinic M3 receptor expressed in CHO cells assessed as inhibition of carbachol-induced [35S]GTPgammaS binding; assay type: functional, cell-based
[15] = tested on: Right cardiac atrium; test: Negative ionotropic activity in electrically-paced Cavia porcellus (guinea pig) right atrium measured after 60 min by isometric transducer analysis in presence of AM 630; assay type: functional, tissue-based
[16] = molecular target: Muscarinic acetylcholine receptor M3 (Homo sapiens) (UniProt P20309); test: Binding affinity to Homo sapiens (human) recombinant muscarinic M3 receptor expressed in CHO cells assessed as [35S]GTPgammaS binding; assay type: functional, cell-based
[17] = molecular target: T2, Muscarinic acetylcholine receptor M1 (Homo sapiens) (UniProt P11229); test: Binding affinity to Homo sapiens (human) recombinant muscarinic M1 receptor expressed in CHO cells assessed as [35S]GTPgammaS binding; assay type: functional, cell-based
T2 sequence (whole entry): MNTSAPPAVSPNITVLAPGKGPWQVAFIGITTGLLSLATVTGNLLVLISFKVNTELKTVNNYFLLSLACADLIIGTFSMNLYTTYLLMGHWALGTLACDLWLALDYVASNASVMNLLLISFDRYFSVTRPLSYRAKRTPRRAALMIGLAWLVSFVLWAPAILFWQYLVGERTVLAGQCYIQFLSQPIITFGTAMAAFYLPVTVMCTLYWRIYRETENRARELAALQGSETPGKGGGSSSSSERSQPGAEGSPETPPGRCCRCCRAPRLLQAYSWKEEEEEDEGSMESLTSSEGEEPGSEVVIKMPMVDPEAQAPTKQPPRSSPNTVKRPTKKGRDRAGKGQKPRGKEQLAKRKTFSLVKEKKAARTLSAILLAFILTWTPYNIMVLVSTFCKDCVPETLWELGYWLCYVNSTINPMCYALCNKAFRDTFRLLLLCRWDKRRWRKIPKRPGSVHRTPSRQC

[18] = tested on: Right cardiac atrium; test: Negative ionotropic activity in electrically-paced Cavia porcellus (guinea pig) right atrium measured after 60 min by isometric transducer analysis in presence of benzalkonium; assay type: functional, tissue-based
[19] = tested on: Right cardiac atrium; test: Negative ionotropic activity in electrically-paced Cavia porcellus (guinea pig) right atrium measured after 60 min by isometric transducer analysis in presence of ANR 83; assay type: functional, tissue-based
[20] = molecular target: T1, Muscarinic acetylcholine receptor M2 (Homo sapiens); test: Allosteric modulation of Homo sapiens (human) recombinant muscarinic M2 receptor expressed in CHO cells assessed as inhibition of carbachol-induced [35S]GTPgammaS binding; assay type: functional, cell-based
[21] = tested on: Left cardiac atrium; test: Reversible negative ionotropic activity in electrically-paced Cavia porcellus (guinea pig) left atrium incubated for 30 min followed by compound-washout measured after 3 hr by isometric transducer analysis; assay type: functional, tissue-based
[22] = tested on: Right cardiac atrium; test: Negative […] activity in electrically-paced Cavia porcellus (guinea pig) right atrium assessed as effect on force measured after 60 min by isometric transducer analysis in presence of benextramine/4-DAMP mustard; assay type: functional, tissue-based; settings: 1 h
[23] = tested on: Right cardiac atrium; test: Negative […] activity in electrically-paced Cavia porcellus (guinea pig) right atrium measured after 60 min by isometric transducer analysis in presence of thioperamide; assay type: functional, tissue-based
[24] = tested on: Left cardiac atrium; test: Negative ionotropic activity in electrically-paced Cavia porcellus (guinea pig) left atrium measured after 60 min by isometric transducer analysis in presence of benextramine; assay type: functional, tissue-based
[25] = tested on: Left cardiac atrium; test: Negative ionotropic activity in electrically-paced Cavia porcellus (guinea pig) left atrium measured after 60 min by isometric transducer analysis in presence of benextramine/4-DAMP mustard relative to N-dodecyl lysine amide; assay type: functional
[26] = tested on: Right cardiac atrium; test: Negative ionotropic activity in electrically-paced Cavia porcellus (guinea pig) right atrium measured after 60 min by isometric transducer analysis in presence of pimozide; assay type: functional, tissue-based

Sequence of Muscarinic acetylcholine receptor M3 (Homo sapiens) (P20309 whole entry, looked up): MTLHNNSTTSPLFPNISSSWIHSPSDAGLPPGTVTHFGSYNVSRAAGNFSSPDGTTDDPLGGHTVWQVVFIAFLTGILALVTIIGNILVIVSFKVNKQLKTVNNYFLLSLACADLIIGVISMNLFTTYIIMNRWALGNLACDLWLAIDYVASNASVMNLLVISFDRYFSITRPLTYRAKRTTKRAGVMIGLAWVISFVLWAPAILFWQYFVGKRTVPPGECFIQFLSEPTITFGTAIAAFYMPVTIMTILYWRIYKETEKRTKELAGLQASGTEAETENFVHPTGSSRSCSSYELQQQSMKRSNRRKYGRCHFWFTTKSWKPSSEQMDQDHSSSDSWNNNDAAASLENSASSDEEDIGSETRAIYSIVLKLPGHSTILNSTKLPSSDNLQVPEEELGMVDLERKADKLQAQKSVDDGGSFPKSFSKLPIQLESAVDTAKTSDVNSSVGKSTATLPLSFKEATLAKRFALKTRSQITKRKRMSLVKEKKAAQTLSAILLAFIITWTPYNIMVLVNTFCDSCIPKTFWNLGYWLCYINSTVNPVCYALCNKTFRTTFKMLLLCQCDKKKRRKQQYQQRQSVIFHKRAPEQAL

| Structure (SMILES) | Activity [1] | EC50 [2] | Activity [3] | Efficacy [4] | Activity [5] | Activity [6] | Activity [7] | Activity [8] | INH [9] | Activity [10] | Activity [11] | EC50 [12] | Efficacy [13] | Activity [14] | Activity [15] | Activity [16] | Activity [17] | Activity [18] | Activity [19] | Activity [20] | also measured |
| --- | --- | --- | --- | --- | --- | --- | --- | --- | --- | --- | --- | --- | --- | --- | --- | --- | --- | --- | --- | --- | --- |
| COc1ccccc1CN1CCC(C2CCN(C(=O)CCCCCCC(=O)N3CCC(C4CCN(Cc5ccccc5OC)CC4)CC3)CC2)CC1 [PIPERTRAMINE AMIDE] | Active | 3.09 nM | Active | 82% | Active | Active | Active | Active | 1.71 µM | Active | Active | 0.589 nM | 90% | Active | Active | inactive | inactive | inactive | Active | Active | Activity [21]: inactive; EC50 [22]: 3.16 nM; Activity [23]: Active; Activity [24]: Active; Efficacy [25]: 85%; Activity [26]: Active |
| COc1ccccc1CN1CCC(C2CCN(CCCCCCCCN3CCC(C4CCN(Cc5ccccc5OC)CC4)CC3)CC2)CC1 [PIPERTRAMINE] | Active | 0.2 nM | Active | 72% | Active | Active | Active | Active | 1.57 µM | Active | Active | 0.331 nM | 96% | Active | Active | inactive | inactive | inactive | Active | Active | Activity [21]: inactive; EC50 [22]: 0.263 nM; Activity [23]: Active; Activity [24]: Active; Efficacy [25]: 96%; Activity [26]: Active |
